Assay results as given in patent publication US20120058085A1, “Deuterium Modified Benzimidazoles” (priority 2009, published 2012).
Read-outs that look alike come from different tables or passages of the source.

Test: Evaluation of Metabolic Stability in Human Liver Microsomes
Format: in vitro ADME
Conditions: for percentage increase in half-life in going from clemizole to the test compound, run A / percentage increase in half-life in going from clemizole to the test compound, run B / percentage increase in half-life in going from clemizole to the test compound, run C / percentage increase in half-life in going from clemizole to the test compound, run D / percentage increase in half-life in going from clemizole to the test compound, Average: HLM, relative to clemizole; for half-life: human, microsomes
Method: Human liver microsomes (20 mg/mL) are obtained from Xenotech, LLC (Lenexa, KS). β-nicotinamide adenine dinucleotide phosphate, reduced form (NADPH), magnesium chloride (MgCl2), and dimethyl sulfoxide (DMSO) are purchased from Sigma-Aldrich.
Determination of Metabolic Stability: 7.5 mM stock solutions of test compounds are prepared in DMSO. The 7.5 mM stock solutions are diluted to 12.5 μM in acetonitrile (ACN). The 20 mg/mL human liver microsomes are diluted to 0.625 mg/mL in 0.1 M potassium phosphate buffer, pH 7.4, containing 3 mM MgCl2. The diluted microsomes (375 μL) are added to wells of a 96-well deep-well polypropylene plate in triplicate. Ten to 40 μL of the 12.5 μM test compound is added to the microsomes and the mixture is pre-warmed for 10 minutes. Reactions are initiated by addition of 125 μL of pre-warmed NADPH solution. The final reaction volume is 0.5 mL and contains 0.5 mg/mL human liver microsomes, 0.25-1.0 μM test compound, and 2 mM NADPH in 0.1 M potassium phosphate buffer, pH 7.4, and 3 mM MgCl2. The reaction mixtures are incubated at 37° C., and 50 μL aliquots are removed at 0, 5, 10, 20, and 30 minutes and added to shallow-well 96-well plates which contain 50 μL of ice-cold ACN with internal standard to stop the reactions. The plates are stored at 4° C. for 20 minutes after which 100 μL of water is added to the wells of the plate before centrifugation to pellet precipitated proteins. Supernatants are transferred to another 96-well plate and analyzed for amounts of parent compound remaining by LC-MS/MS using an Applied Bio-systems API 4000 mass spectrometer. The same procedure is followed for the non-deuterated counterpart of the compound of Formula I and the positive control, 7-ethoxycoumarin (1 μM). Testing is done in triplicate.
Data analysis: The in vitro half-lives (t1/2s) for test compounds are calculated from the slopes of the linear regression of % parent remaining (In) vs incubation time relationship using the following formula:
in vitro t1/2=0.693/k, where k=-[slope of linear regression of % parent remaining(1n) vs incubation time]
Data analysis is performed using Microsoft Excel Software.
Four separate metabolic stability runs were performed in Human Liver Microsomes (HLM) for clemizole and for test compounds of the invention. […] The values in parenthesis in columns A through D and in the “Average” column indicate the percentage increase in half-life in going from clemizole to the test compound.

[1] = pH 7.4, HLM 0.5 mg/mL, 2 mM NADPH, 37° C., run A, read-out: t½ (min) A
[2] = pH 7.4, HLM 0.5 mg/mL, 2 mM NADPH, 37° C., run B, read-out: t½ (min) B
[3] = pH 7.4, HLM 0.5 mg/mL, 2 mM NADPH, 37° C., run C, read-out: t½ (min) C
[4] = pH 7.4, HLM 0.5 mg/mL, 2 mM NADPH, 37° C., run D, read-out: t½ (min) D
[5] = pH 7.4, HLM, average of runs A-D, read-out: Ave t½

| Compound | percentage increase in half-life in going from clemizole to the test compound, run A (run A) | percentage increase in half-life in going from clemizole to the test compound, run B (run B) | percentage increase in half-life in going from clemizole to the test compound, run C (run C) | percentage increase in half-life in going from clemizole to the test compound, run D (run D) | half-life [1] [min] | half-life [2] [min] | half-life [3] [min] | half-life [4] [min] | half-life [5] [min] | percentage increase in half-life in going from clemizole to the test compound, Average (average of runs A-D) |
| --- | --- | --- | --- | --- | --- | --- | --- | --- | --- | --- |
| [2H]C1([2H])N(Cc2nc3ccccc3n2Cc2ccc(Cl)cc2)C([2H])([2H])C([2H])([2H])C1([2H])[2H] [Compound 102, 1-(4-Chlorobenzyl)-2-((2,2,3,3,4,4,5,5-d8-pyrrolidin-1-yl)methyl)-1H-benzo[d]imidazole] | (+41%) | (+38%) | (+32%) | (+36%) | 18.9 | 19.4 | 17.6 | 16.7 | 18.2 | – |
| Clc1ccc(Cn2c(CN3CCCC3)nc3ccccc32)cc1 [clemizole, 1-(p-chlorobenzyl)-2-(1-pyrrolidinylmethyl) benzimidazole, reference compound] | – | – | – | – | 13.5 | 14 | 13.3 | 12.3 | 13.3 | – |
| [2H]C([2H])(c1ccc(Cl)cc1)n1c(CN2C([2H])([2H])C([2H])([2H])C([2H])([2H])C2([2H])[2H])nc2ccccc21 [Compound 106] | (+21%) | (+22%) | (+22%) | (+36%) | 16.2 | 17.2 | 16.2 | 16.7 | 16.6 | – |
| [2H]C([2H])(c1nc2ccccc2n1C([2H])([2H])c1ccc(Cl)cc1)N1C([2H])([2H])C([2H])([2H])C([2H])([2H])C1([2H])[2H] [Compound 110, 1-(4-Chlorophenyl-d2-methyl)-2-(d2-(2,2,3,3,4,4,5,5-d8-pyrrolidin-1-yl)methyl)-1H-benzo[d]imidazole] | (+18%) | (+30%) | (+34%) | (+38%) | 15.8 | 18.2 | 17.8 | 17 | 17.2 | – |
| [2H]C([2H])(c1nc2ccccc2n1C([2H])([2H])c1ccc(Cl)cc1)N1CCCC1 [Compound 105, 1-(4-Chlorophenyl-d2-methyl)-2-(d2-(pyrrolidin-1-yl)methyl)-1H-benzo[d]imidazole] | (+0.9%) | (+6%) | (+6%) | (+13%) | 13.6 | 14.9 | 14 | 13.9 | 14 | (+6%) |
| [2H]C([2H])(c1nc2ccccc2n1Cc1ccc(Cl)cc1)N1CCCC1 [Compound 101, 1-(4-Chlorobenzyl)-2-(d2-(pyrrolidin-1-yl)methyl)-1H-benzo[d]imidazole] | (+18%) | (+8%) | (+9%) | (+14%) | 15.9 | 15.2 | 14.4 | 14 | 14.9 | – |
| [2H]C1([2H])CCC([2H])([2H])N1Cc1nc2ccccc2n1Cc1ccc(Cl)cc1 [Compound 104] | (+15%) | (+16%) | (+17%) | (+27%) | 15.5 | 16.3 | 15.5 | 15.6 | 15.7 | – |
| [2H]C([2H])(c1ccc(Cl)cc1)n1c(CN2CCCC2)nc2ccccc21 [Compound 100, 1-(4-Chlorophenyl-d2-methyl)-2-(pyrrolidin-1-ylmethyl)-1H-benzo[d]imid-azole] | (+2%) | (+0.3%) | (+4%) | (+13%) | 13.7 | 14.1 | 13.8 | 13.8 | 13.9 | (+4%) |
